Measured values taken from patent publication US20090221581A1, “Methods of treating pain” (priority 2005, published 2009).
“Also recorded” adds a separate entry of the source.

Tests used:
CDK2/CycA = target: T1, CDK2/CycA (Homo sapiens, UniProt P24941); assay: In vitro kinase inhibition assay, CDK2/CycA; assay type: biochemical
T1 construct: host or cells: Sf9 insect cells, baculovirus
Method: In vitro kinase inhibition assays may be performed according to the following protocol:
Compounds are used as 1×10^−02 M stock solutions in 100% DMSO, 100 μl each in column 2 of three 96-well V-shaped microtiter plates (in the following, said plates are referred to as “master plates”).
Subsequently, the 1×10^−02 M stock solutions in column 2 of the master plates are subjected to a serial, semi-logarithmic dilution using 100% DMSO as a solvent, resulting in 10 different concentrations, the dilution endpoint being 3×10^−07 M/100% DMSO in column 12. Column 1 and 7 are filled with 100% DMSO as controls. […]
For the determination of inhibitory profiles, the following protein kinases were used: CDK2/CycA, CDK4/CycD1, CDK6/CycD1 and CDK9/CycT. […] The purity of each kinase is determined by SDS-PAGE/silver staining and the identity of each kinase is verified by western blot analysis with kinase specific antibodies or by mass spectroscopy. […]
Reaction mixtures are incubated at 30° C. for 80 minutes. […] Incorporation of ^33P is determined with a microplate scintillation counter (Microbeta, Wallac). […]
The median value of the counts in column 1 (n=8) of each assay plate is defined as “low control”. This value reflects unspecific binding of radioactivity to the plate in the absence of a protein kinase but in the presence of the substrate. […]

formalin-treated mice = assay: Formalin assay, licking behaviour; assay type: in vivo; conditions: 30 mg/kg i.p. 30 min before formalin injection
Method: The formalin assay in mice is a valid and reliable behavioral model of nociception and is sensitive to various classes of analgesic drugs (Hunskaar S & Hole K, Pain. 1987, 30(1):103-14.) The noxious stimulus consists of a subcutaneous or an intraplantar injection of 10 μl diluted formalin (2% in saline) into the left hind paw. The response is licking and flinching of the injected paw.
Age, sex and weight matched wildtype mice (C3HeB/FeJ) were used in this assay. Prior to formalin injection, the animals were randomly subdivided into experimental groups of 10 animals each. […]
For formalin injection, the mouse was held with a paper towel in order to avoid disturbance of the injection by movements. […] The behavior of the formalin- and CDK-inhibitor-treated mice was analyzed as described below.
The behaviour of the formalin-treated mice, i.e. licking and flinching, was monitored by an automated tracking system (Ethovision 3.0 Color Pro, Noldus, Wageningen, Netherlands) over a defined period of time: measurement was initiated 5 min after formalin injection and terminated 30 min after formalin injection. […]
As another possibility of assay read-out, the licking behaviour of the individual animals was tracked manually based on video files. Licking times were recorded over 30 minutes after formalin injection and subdivided for three different licking zones (dorsum, plantar, toes). […]

COc1ccccc1-c1cc(Nc2cccc(S(N)(=O)=O)c2)ncn1 [Compound A]
IC50 (CDK2/CycA): 10.1 µM
fluorescent dot size of the formalin-treated paw (formalin-treated mice): no significant reduction of fluorescent dot size
licking time (formalin-treated mice; vs vehicle, 30 mg/kg): reduction in licking time; also recorded: clearly reduced
